Source: PubChem BioAssay (NCI)
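At the GI50, growth is halved. Definition used: TGI = concentration required for complete inhibition of growth.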

Tests used:
Test in all cases: DTP human tumour cell line panel, 384-well format
EKVX NSCLC = system: EKVX NSCLC
MDA-MB-468 breast = system: MDA-MB-468 breast
NCI-H522 lung = system: NCI-H522 lung
SF-268 CNS = system: SF-268 CNS
SNB-19 CNS = system: SNB-19 CNS
PC-3 prostate = system: PC-3 prostate
SK-MEL-28 melanoma = system: SK-MEL-28 melanoma
HOP-62 NSCLC = system: HOP-62 NSCLC
SN12C renal = system: SN12C renal
OVCAR-3 ovarian = system: OVCAR-3 ovarian
SK-MEL-5 melanoma = system: SK-MEL-5 melanoma
OVCAR-4 ovarian = system: OVCAR-4 ovarian
COLO 205 colon = system: COLO 205 colon
MCF7 breast = system: MCF7 breast
HOP-92 NSCLC = system: HOP-92 NSCLC
IGROV1 ovarian = system: IGROV1 ovarian
LOX IMVI melanoma = system: LOX IMVI melanoma
CCRF-CEM leukemia = system: CCRF-CEM leukemia
SF-539 CNS = system: SF-539 CNS
HS 578T breast = system: HS 578T breast
SR leukemia = system: SR leukemia
TK-10 renal = system: TK-10 renal
HT29 colon = system: HT29 colon
SNB-75 CNS = system: SNB-75 CNS
K-562 leukemia = system: K-562 leukemia
T-47D breast = system: T-47D breast
SW-620 colon = system: SW-620 colon
SK-OV-3 ovarian = system: SK-OV-3 ovarian
DU-145 prostate = system: DU-145 prostate
OVCAR-5 ovarian = system: OVCAR-5 ovarian
CAKI-1 renal = system: CAKI-1 renal
A498 renal = system: A498 renal
OVCAR-8 ovarian = system: OVCAR-8 ovarian
NCI-H226 lung = system: NCI-H226 lung
HCC-2998 colon = system: HCC-2998 colon
MALME-3M melanoma = system: MALME-3M melanoma
RXF 393 renal = system: RXF 393 renal
ACHN renal = system: ACHN renal
M14 melanoma = system: M14 melanoma
NCI-H460 NSCLC = system: NCI-H460 NSCLC
UACC-257 melanoma = system: UACC-257 melanoma
BT-549 breast = system: BT-549 breast
MDA-MB-231 breast = system: MDA-MB-231 breast
MDA-MB-435 melanoma = system: MDA-MB-435 melanoma
HCT-15 colon = system: HCT-15 colon
HCT-116 colon = system: HCT-116 colon
A549 NSCLC = system: A549 NSCLC
NCI-H23 lung = system: NCI-H23 lung
KM12 colon = system: KM12 colon
SF-295 CNS = system: SF-295 CNS
NCI-H322M lung = system: NCI-H322M lung
U251 glioblastoma = system: U251 glioblastoma
NCI/ADR-RES ovarian = system: NCI/ADR-RES ovarian
786-0 renal = system: 786-0 renal
UO-31 renal = system: UO-31 renal
UACC-62 melanoma = system: UACC-62 melanoma

N#CCC1CCN(c2nc(Nc3ccc(N4CCC(O)CC4)cc3)c3c(=O)[nH]ncc3n2)CC1
GI50 (EKVX NSCLC): 0.277 µM | TGI (EKVX NSCLC): > 100 µM | GI50 (MDA-MB-468 breast): 1.01 µM | TGI (MDA-MB-468 breast): 3.47 µM | GI50 (NCI-H522 lung): 0.196 µM | TGI (NCI-H522 lung): 0.929 µM | GI50 (SF-268 CNS): 1.43 µM | TGI (SF-268 CNS): 9.43 µM | GI50 (SNB-19 CNS): 2.75 µM | TGI (SNB-19 CNS): > 100 µM | GI50 (PC-3 prostate): > 100 µM | TGI (PC-3 prostate): > 100 µM | GI50 (SK-MEL-28 melanoma): 0.81 µM | TGI (SK-MEL-28 melanoma): > 100 µM | GI50 (HOP-62 NSCLC): 3.71 µM | TGI (HOP-62 NSCLC): > 100 µM | GI50 (SN12C renal): 0.243 µM | TGI (SN12C renal): > 100 µM | GI50 (OVCAR-3 ovarian): 1.13 µM | TGI (OVCAR-3 ovarian): > 100 µM | GI50 (SK-MEL-5 melanoma): 0.338 µM | TGI (SK-MEL-5 melanoma): > 100 µM | GI50 (OVCAR-4 ovarian): > 100 µM | TGI (OVCAR-4 ovarian): > 100 µM | GI50 (COLO 205 colon): 0.24 µM | TGI (COLO 205 colon): 0.921 µM | GI50 (MCF7 breast): 0.254 µM | TGI (MCF7 breast): > 100 µM | GI50 (HOP-92 NSCLC): 0.329 µM | TGI (HOP-92 NSCLC): > 100 µM | GI50 (IGROV1 ovarian): 0.239 µM | TGI (IGROV1 ovarian): 3.48 µM | GI50 (LOX IMVI melanoma): 0.49 µM | TGI (LOX IMVI melanoma): 2.6 µM | GI50 (CCRF-CEM leukemia): 0.332 µM | TGI (CCRF-CEM leukemia): > 100 µM | GI50 (SF-539 CNS): 0.793 µM | TGI (SF-539 CNS): 2.39 µM | GI50 (HS 578T breast): 0.673 µM | TGI (HS 578T breast): 3.54 µM | GI50 (SR leukemia): 0.18 µM | TGI (SR leukemia): 0.327 µM | GI50 (TK-10 renal): 0.425 µM | TGI (TK-10 renal): 4.85 µM | GI50 (HT29 colon): 0.427 µM | TGI (HT29 colon): > 100 µM | GI50 (SNB-75 CNS): 1.24 µM | TGI (SNB-75 CNS): 3.17 µM | GI50 (K-562 leukemia): 0.482 µM | TGI (K-562 leukemia): > 100 µM | GI50 (T-47D breast): 4.39 µM | TGI (T-47D breast): > 100 µM | GI50 (SW-620 colon): 0.441 µM | TGI (SW-620 colon): 2.21 µM | GI50 (SK-OV-3 ovarian): 0.235 µM | TGI (SK-OV-3 ovarian): 4.81 µM | GI50 (DU-145 prostate): 0.704 µM | TGI (DU-145 prostate): > 100 µM | GI50 (OVCAR-5 ovarian): 0.602 µM | TGI (OVCAR-5 ovarian): > 100 µM | GI50 (CAKI-1 renal): 0.349 µM | TGI (CAKI-1 renal): > 100 µM | GI50 (A498 renal): 0.804 µM | TGI (A498 renal): > 100 µM | GI50 (OVCAR-8 ovarian): 5.18 µM | TGI (OVCAR-8 ovarian): > 100 µM | GI50 (NCI-H226 lung): 0.281 µM | TGI (NCI-H226 lung): > 100 µM | GI50 (HCC-2998 colon): 0.378 µM | TGI (HCC-2998 colon): 2.91 µM | GI50 (MALME-3M melanoma): 0.472 µM | TGI (MALME-3M melanoma): > 100 µM | GI50 (RXF 393 renal): 0.893 µM | TGI (RXF 393 renal): 3.27 µM | GI50 (ACHN renal): 0.547 µM | TGI (ACHN renal): > 100 µM | GI50 (M14 melanoma): 0.346 µM | TGI (M14 melanoma): > 100 µM | GI50 (NCI-H460 NSCLC): 0.319 µM | TGI (NCI-H460 NSCLC): > 100 µM | GI50 (UACC-257 melanoma): > 100 µM | TGI (UACC-257 melanoma): > 100 µM | GI50 (BT-549 breast): 0.538 µM | TGI (BT-549 breast): 2.25 µM | GI50 (MDA-MB-231 breast): 5.42 µM | TGI (MDA-MB-231 breast): > 100 µM | GI50 (MDA-MB-435 melanoma): 0.311 µM | TGI (MDA-MB-435 melanoma): > 100 µM | GI50 (HCT-15 colon): 0.453 µM | TGI (HCT-15 colon): > 100 µM | GI50 (HCT-116 colon): 0.336 µM | TGI (HCT-116 colon): > 100 µM | GI50 (A549 NSCLC): 0.365 µM | TGI (A549 NSCLC): > 100 µM | GI50 (NCI-H23 lung): 0.293 µM | TGI (NCI-H23 lung): > 100 µM

CN1CC[C@H](N(C)C(=O)N2CC(c3cc(F)ccc3F)=C[C@@]2(CO)c2ccccc2)[C@H](F)C1
TGI (EKVX NSCLC): 28.2 µM | TGI (KM12 colon): 10.9 µM | TGI (SF-268 CNS): 11.7 µM | TGI (SNB-19 CNS): 27.5 µM | TGI (PC-3 prostate): 27.1 µM | GI50 (SK-MEL-28 melanoma): 0.646 µM | TGI (SK-MEL-28 melanoma): 19.5 µM | TGI (HOP-62 NSCLC): 25.9 µM | TGI (SF-295 CNS): 1.28 µM | TGI (SK-MEL-5 melanoma): 1.07 µM | GI50 (OVCAR-4 ovarian): 21.6 µM | TGI (OVCAR-4 ovarian): > 100 µM | TGI (MCF7 breast): 35.4 µM | GI50 (HOP-92 NSCLC): 0.198 µM | TGI (HOP-92 NSCLC): 32.6 µM | GI50 (IGROV1 ovarian): 6.07 µM | TGI (IGROV1 ovarian): > 100 µM | TGI (NCI-H322M lung): 55.6 µM | TGI (LOX IMVI melanoma): 20 µM | TGI (U251 glioblastoma): 14.5 µM | TGI (SF-539 CNS): 11.6 µM | TGI (NCI/ADR-RES ovarian): 0.0135 µM | TGI (786-0 renal): 12.4 µM | GI50 (TK-10 renal): 4.89 µM | TGI (TK-10 renal): 35.3 µM | TGI (SNB-75 CNS): 27.4 µM | TGI (T-47D breast): 43.1 µM | GI50 (UO-31 renal): 3.34 µM | TGI (UO-31 renal): 95.1 µM | TGI (UACC-62 melanoma): 16.5 µM | TGI (SW-620 colon): > 100 µM | TGI (SK-OV-3 ovarian): 26.8 µM | TGI (CAKI-1 renal): > 100 µM | TGI (A498 renal): 13 µM | TGI (OVCAR-8 ovarian): 11.4 µM | TGI (NCI-H226 lung): 8.16 µM | TGI (HCC-2998 colon): 13.3 µM | TGI (MALME-3M melanoma): 14.5 µM | GI50 (ACHN renal): 9.3 µM | TGI (ACHN renal): > 100 µM | TGI (BT-549 breast): 13.6 µM | TGI (MDA-MB-231 breast): > 100 µM | TGI (HCT-15 colon): 28 µM | TGI (HCT-116 colon): 14.6 µM | TGI (A549 NSCLC): > 100 µM | TGI (NCI-H23 lung): 0.0371 µM
